In patent US11845760B2, “PRMT5 inhibitors” (AMGEN INC., priority 2020, dated 2023):

Tests used:
[1] = test system: HCT116 WT cells; test: HCT116 WT cell line proliferation (CellTiter-Glo cell viability, 6 days); type: cell-based; details: Homo sapiens, HCT-116, 144 h, HCT116 WT (parent) cells, 6 days of treatment, CellTiter-Glo cell viability; read-out: HCT-116 WT IC50
How it was run: (§1)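 Isogenic HCT116 pair (parent and MTAP double-allele knockout) in RPMI 1640 + 10% FBS, exposed 6 days to compound: 8–9-point 1:3 dilutions from 1 or 10 μM top, or 22-point 1:2 dilutions from 10 or 50 μM top. CellTiter-Glo luminescence; IC50 from sigmoidal fit (Hill −1) or 4-parameter logistic.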

[2] = test system: HCT116 MTAP null cells; test: HCT116 MTAP null cell line proliferation (CellTiter-Glo cell viability, 6 days); type: cell-based; details: HCT116-MTAP null, 144 h, HCT116 MTAP null cells, 6 days of treatment, CellTiter-Glo cell viability; read-out: HCT-116 MTAP null IC50
How it was run: as §1

Row | Structure (SMILES) | IC50 [1] [nM] | IC50 [2] [nM]
1 | C[C@@H]1COC[C@H](c2ccc(C(F)(F)F)cn2)N1C(=O)c1cc2c(cn1)nc(N)c1cnn(C)c12 [Example 520, (4-amino-1-methyl-1H-pyrazolo[4,3-c][1,7]naphthyridin-8-yl)((3R,5S)-3-methyl-5-(5-(trifluoromethyl)-2-pyridinyl)-4-morpholinyl)methanone] | 120 | 18
2 | Cn1ncc2c(N)nc3ccc(C(=O)N4CCOC[C@@H]4c4ccc(C(F)(F)F)cc4)cc3c21 [Example 521, (4-amino-1-methyl-1H-pyrazolo[4,3-c]quinolin-8-yl)((3S)-3-(4-(trifluoromethyl)phenyl)-4-morpholinyl)methanone] | 2080 | 30
3 | C[C@@H]1COC[C@H](c2ccc(C(F)(F)F)cn2)N1C(=O)c1cc2c3c(c(N)nc2cn1)COC3 [Example 522, (4-amino-1,3-dihydrofuro[3,4-c][1,7]naphthyridin-8-yl)((3R,5S)-3-methyl-5-(5-(trifluoromethyl)-2-pyridinyl)-4-morpholinyl)methanone] | 509 | 30
4 | C[C@@H]1COC[C@H](c2ccc(C(F)(F)F)cc2)N1C(=O)c1cc2c3c(c(N)nc2cn1)COC3 [Example 523, (4-amino-1,3-dihydrofuro[3,4-c][1,7]naphthyridin-8-yl)((3R,5S)-3-methyl-5-(4-(trifluoromethyl)phenyl)-4-morpholinyl)methanone] | 213 | 9
5 | C[C@@H]1COC[C@H](c2ccc(C(F)(F)F)nc2)N1C(=O)c1cc2c3c(c(N)nc2cn1)COC3 [Example 524, (4-amino-1,3-dihydrofuro[3,4-c][1,7]naphthyridin-8-yl)((3R,5S)-3-methyl-5-(6-(trifluoromethyl)-3-pyridinyl)-4-morpholinyl)methanone] | 1240 | 31
6 | C[C@@H]1COC[C@H](c2ccc(OC(F)(F)F)cc2)N1C(=O)c1cc2c3c(c(N)nc2cn1)COC3 [Example 525, (4-amino-1,3-dihydrofuro[3,4-c][1,7]naphthyridin-8-yl)((3R,5S)-3-methyl-5-(4-(trifluoromethoxy)phenyl)-4-morpholinyl)methanone] | 372 | 19
7 | C[C@@H]1COC[C@H](c2ccc(C(F)(F)F)cc2)N1C(=O)c1cc2c3c(c(N)nc2cc1F)COC3 [Example 526, (4-amino-7-fluoro-1,3-dihydrofuro[3,4-c]quinolin-8-yl)((3R,5S)-3-methyl-5-(4-(trifluoromethyl)phenyl)-4-morpholinyl)methanone] | 120 | 6
8 | C[C@@H]1COC[C@H](c2ccc(C(F)(F)F)cc2)N1C(=O)c1ccc2nc(N)c3c(c2c1)COC3 [Example 527, (4-amino-1,3-dihydrofuro[3,4-c]quinolin-8-yl)((3R,5S)-3-methyl-5-(4-(trifluoromethyl)phenyl)-4-morpholinyl)methanone] | 503 | 27
9 | Nc1nc2cc(F)c(C(=O)N3CCOC[C@@H]3c3ccc(C(F)(F)F)cc3)cc2c2c1COC2 [Example 528, (4-amino-7-fluoro-1,3-dihydrofuro[3,4-c]quinolin-8-yl)((3S)-3-(4-(trifluoromethyl)phenyl)-4-morpholinyl)methanone] | 1210 | 29
10 | Nc1nc2cc(Cl)c(C(=O)N3CCOC[C@@H]3c3ccc(C(F)(F)F)cc3)cc2c2c1COC2 [Example 529, (4-amino-7-chloro-1,3-dihydrofuro[3,4-c]quinolin-8-yl)((3S)-3-(4-(trifluoromethyl)phenyl)-4-morpholinyl)methanone] | 502 | 18
11 | C[C@@H]1COC[C@H](c2ccc(OC(F)(F)F)cc2)N1C(=O)c1cc2c3c(c(N)nc2cc1Cl)COC3 [Example 530, (4-amino-7-chloro-1,3-dihydrofuro[3,4-c]quinolin-8-yl)((3R,5S)-3-methyl-5-(4-(trifluoromethoxy)phenyl)-4-morpholinyl)methanone] | 60 | 4
